# Source: ChEMBL document CHEMBL1201862, “PubChem BioAssay data set” (2004)
#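 Cultured in 96-well plates, cells were exposed to test compound for 48 hours across five concentrations. The concentration for 50% growth inhibition is given as GI50.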 The source made the active and inactive calls. No stated cut-off is given here; in the data, active = GI50 up to about 1.1 µM and inactive = higher.
# Experiments:
# Test in all cases: NCI tumour cell line growth inhibition, 48 h
# [1] = test system: SN12C
# [2] = test system: IGROV-1
# [3] = test system: HOP-62
# [4] = test system: SF-268
# [5] = test system: HCT-116
# [6] = test system: MCF7
# [7] = test system: CCRF-CEM
# [8] = test system: MOLT-4
# [9] = test system: PC-3
# [10] = test system: SK-MEL-5
# [11] = test system: SF-295
# [12] = test system: OVCAR-3
# [13] = test system: M14
# [14] = test system: SK-OV-3
# [15] = test system: NCI-H226
# [16] = test system: A549
# [17] = test system: SF-539
# [18] = test system: A498
# [19] = test system: 786-0
SMILES,GI50 [1],GI50 [2],GI50 [3],GI50 [4],GI50 [5],GI50 [6],GI50 [7],GI50 [8],GI50 [9],GI50 [10],GI50 [11],GI50 [12],GI50 [13],GI50 [14],GI50 [15],GI50 [16],GI50 [17],GI50 [18],GI50 [19]
O=C(O)CCCCn1cnc2c(S)ncnc21,> 100 µM (inactive),> 100 µM (inactive),> 100 µM (inactive),> 100 µM (inactive),> 100 µM (inactive),> 100 µM (inactive),4.33 µM (inactive),> 100 µM (inactive),> 100 µM (inactive),> 100 µM (inactive),> 100 µM (inactive),> 100 µM (inactive),> 100 µM (inactive),> 100 µM (inactive),> 100 µM (inactive),> 100 µM (inactive),> 100 µM (inactive),> 100 µM (inactive),> 100 µM (inactive)
CC(=O)NCCC1CN(C(=O)/C=C\I)c2ccccc21 (stereo unspecified),4.97 µM (inactive),15.1 µM (inactive),11.2 µM (inactive),15.5 µM (inactive),14.6 µM (inactive),2.56 µM (inactive),3.03 µM (inactive),5.53 µM (inactive),11.7 µM (inactive),3.48 µM (inactive),15.3 µM (inactive),15 µM (inactive),11.7 µM (inactive),20 µM (inactive),10.7 µM (inactive),13.8 µM (inactive),5.32 µM (inactive),18.4 µM (inactive),10.6 µM (inactive)
CN(CCCNC(=O)c1cn(C)c2c1Cc1ccccc1-2)CCCNC(=O)c1cn(C)c2c1Cc1ccccc1-2,13.4 µM (inactive),6.24 µM (inactive),12.9 µM (inactive),5.14 µM (inactive),9.33 µM (inactive),10.2 µM (inactive),2.74 µM (inactive),3.35 µM (inactive),10.8 µM (inactive),14.2 µM (inactive),12.3 µM (inactive),15.6 µM (inactive),3.81 µM (inactive),16.5 µM (inactive),17.2 µM (inactive),15.8 µM (inactive),13.8 µM (inactive),11.9 µM (inactive),4.83 µM (inactive)
N#Cc1nc(/C=C/c2ccccc2)oc1N,> 100 µM (inactive),> 100 µM (inactive),> 100 µM (inactive),> 100 µM (inactive),> 100 µM (inactive),> 100 µM (inactive),> 100 µM (inactive),13.7 µM (inactive),> 100 µM (inactive),> 100 µM (inactive),> 100 µM (inactive),> 100 µM (inactive),> 100 µM (inactive),> 100 µM (inactive),> 100 µM (inactive),> 100 µM (inactive),> 100 µM (inactive),> 100 µM (inactive),> 100 µM (inactive)
Cc1ccc(S(=O)(=O)N2CC(CCN)c3ccccc32)cc1 (stereo unspecified),2.72 µM (inactive),3.28 µM (inactive),6.78 µM (inactive),5.31 µM (inactive),2.27 µM (inactive),1.47 µM (inactive),> 100 µM (inactive),28 µM (inactive),3.64 µM (inactive),2.58 µM (inactive),4.56 µM (inactive),3.36 µM (inactive),2.29 µM (inactive),5.5 µM (inactive),2.45 µM (inactive),9.51 µM (inactive),3.17 µM (inactive),10.7 µM (inactive),3.89 µM (inactive)
CCOP(=O)(OCC)/C(C#N)=C/c1cnc(C)[nH]1,> 100 µM (inactive),> 100 µM (inactive),> 100 µM (inactive),> 100 µM (inactive),> 100 µM (inactive),> 100 µM (inactive),> 100 µM (inactive),> 100 µM (inactive),> 100 µM (inactive),> 100 µM (inactive),> 100 µM (inactive),> 100 µM (inactive),> 100 µM (inactive),20.5 µM (inactive),> 100 µM (inactive),> 100 µM (inactive),> 100 µM (inactive),> 100 µM (inactive),> 100 µM (inactive)
Cc1occc1C(=S)Nc1ccc(Cl)c(/C=N/OC(C)C)c1,16.8 µM (inactive),27.8 µM (inactive),25.2 µM (inactive),28.1 µM (inactive),20.4 µM (inactive),19.1 µM (inactive),18.1 µM (inactive),20.8 µM (inactive),24.9 µM (inactive),19.9 µM (inactive),18.3 µM (inactive),15.6 µM (inactive),23.3 µM (inactive),24.3 µM (inactive),18.2 µM (inactive),22.3 µM (inactive),16.7 µM (inactive),19.2 µM (inactive),18.5 µM (inactive)
O=c1cc(N=P(c2ccccc2)(c2ccccc2)c2ccccc2)n(-c2ccccc2)c(=O)n1-c1ccccc1,11.1 µM (inactive),17.9 µM (inactive),6.52 µM (inactive),29 µM (inactive),13.3 µM (inactive),6.03 µM (inactive),8.63 µM (inactive),3.48 µM (inactive),3.94 µM (inactive),10.3 µM (inactive),20.7 µM (inactive),8.17 µM (inactive),8.79 µM (inactive),22.2 µM (inactive),3.92 µM (inactive),6.25 µM (inactive),3.76 µM (inactive),3.18 µM (inactive),6.3 µM (inactive)
Cc1cn(C2CC(N=[N+]=[N-])C(COP(=O)(O)OCC3OC(n4cc(F)c(=O)[nH]c4=O)CC3O)O2)c(=O)[nH]c1=O (stereo unspecified),> 100 µM (inactive),2.88 µM (inactive),0.348 µM (active),0.442 µM (active),4.21 µM (inactive),0.137 µM (active),0.312 µM (active),2.22 µM (inactive),> 100 µM (inactive),12.2 µM (inactive),0.337 µM (active),> 100 µM (inactive),10.9 µM (inactive),> 100 µM (inactive),> 100 µM (inactive),0.368 µM (active),0.0438 µM (active),3.37 µM (inactive),0.381 µM (active)
C=CCNC(=S)N/C=C(\C#N)C(N)=O,> 100 µM (inactive),> 100 µM (inactive),> 100 µM (inactive),> 100 µM (inactive),> 100 µM (inactive),> 100 µM (inactive),> 100 µM (inactive),> 100 µM (inactive),> 100 µM (inactive),> 100 µM (inactive),> 100 µM (inactive),> 100 µM (inactive),> 100 µM (inactive),> 100 µM (inactive),> 100 µM (inactive),> 100 µM (inactive),> 100 µM (inactive),> 100 µM (inactive),> 100 µM (inactive)
N#CC1(C#N)NC(c2cccnc2)C(C#N)(C#N)NC1c1cccnc1 (stereo unspecified),> 100 µM (inactive),> 100 µM (inactive),> 100 µM (inactive),> 100 µM (inactive),> 100 µM (inactive),> 100 µM (inactive),> 100 µM (inactive),> 100 µM (inactive),> 100 µM (inactive),> 100 µM (inactive),> 100 µM (inactive),> 100 µM (inactive),> 100 µM (inactive),> 100 µM (inactive),> 100 µM (inactive),> 100 µM (inactive),> 100 µM (inactive),> 100 µM (inactive),> 100 µM (inactive)
C/C(=N\NC(=S)N/N=C(\C)c1ccccn1)c1ccccn1,0.345 µM (active),4.28 µM (inactive),1.05 µM (active),0.817 µM (active),1.84 µM (inactive),1.85 µM (inactive),0.337 µM (active),1.31 µM (inactive),1.27 µM (inactive),4.61 µM (inactive),1.57 µM (inactive),0.656 µM (active),1.27 µM (inactive),1.31 µM (inactive),0.738 µM (active),2.18 µM (inactive),0.979 µM (active),6.03 µM (inactive),2.07 µM (inactive)
Cc1ccc(/N=N\c2c(O)c(S(=O)(=O)O)cc3cc(S(=O)(=O)O)ccc23)c(C)c1,> 100 µM (inactive),> 100 µM (inactive),> 100 µM (inactive),> 100 µM (inactive),> 100 µM (inactive),> 100 µM (inactive),> 100 µM (inactive),> 100 µM (inactive),> 100 µM (inactive),> 100 µM (inactive),> 100 µM (inactive),> 100 µM (inactive),> 100 µM (inactive),> 100 µM (inactive),> 100 µM (inactive),> 100 µM (inactive),> 100 µM (inactive),> 100 µM (inactive),> 100 µM (inactive)
FC(F)(F)c1ccc2c(c1)nc(-c1ccc(Cl)cc1)n2CC1CCCN2CCCCC12 (stereo unspecified),12.9 µM (inactive),14.4 µM (inactive),13.9 µM (inactive),14 µM (inactive),14.3 µM (inactive),14.5 µM (inactive),10.8 µM (inactive),0.233 µM (active),11.6 µM (inactive),14 µM (inactive),16.7 µM (inactive),18.4 µM (inactive),14 µM (inactive),6.7 µM (inactive),14.8 µM (inactive),14.8 µM (inactive),14.8 µM (inactive),14.2 µM (inactive),13.8 µM (inactive)
